Measurements as given in patent US6599705B2, “Regulation of fungal gene expression” (priority 1997, dated 2003).

Assays:
S. cerevisiae = test: dig assay (nonfilamentous agar invasion) on YPD gradient plates; format: cell-based; details: YPD agar with fluconazole gradient, two days, washed with water (FIG. 12)
Description: Another example of a screen is based on the observation that yeast from haploid S. cerevisiae invade agar when grown on rich (YPD) medium without forming pseudohyphae. This nonfilamentous invasion behavior has been termed “digging,” and the assay used to detect this behavior has been termed the “dig assay.” Roberts and Fink, supra. […] Mutant strains defective for digging are referred to as “dig minus,” or “dig−.” The correlation of pseudohyphal invasion and behavior in the dig assay is an essential aspect of this screen. The dig assay is comparatively easy to perform relative to pseudohyphal invasion assays, and, as it occurs in haploid cells, is more amenable to genetic approaches that rely upon recessive mutations.
An example of the dig assay is given below. To test whether a chemical compound would affect the nonfilamentous agar invasion behavior of nonmutant S. cerevisiae or C. albicans at concentrations much lower than the lowest growth inhibitory concentration, these fungi were spotted onto agar plates containing rich medium (YPD) and a gradient of the antifungal fluconazole. The plates were then incubated for two days at optimum growth temperatures and washed with water. […] This assay can be performed on other dimorphic fungi, such as U. maydis, as well as on other fungi. […]

C. albicans = test: as above; format: cell-based; details: YPD agar with fluconazole gradient, two days, washed with water (FIG. 12)
Description: We have discovered that pathogenic fungi can display similar digging behavior, characterized by increased invasion into or adherence to a defined substrate. […] This behavior is similar to the reported digging behavior of S. cerevisiae. As is true for S. cerevisiae, non-hyphal agar invasion by any given C. albicans mutant strain correlates with the ability of that strain to form filaments under filament-inducing conditions (e.g., agar+serum). Thus, screening for compounds that block the digging phenotype in fungi will allow for identification of compounds that block filament formation and, as a result, pathogenesis. These compounds are considered useful as fungicides or fungistats. Similarly, screening for compounds that increase substrate invasion will allow for identification of compounds which may also increase production or yield of secondary metabolites.
An example of the dig assay is given below. To test whether a chemical compound would affect the nonfilamentous agar invasion behavior of nonmutant S. cerevisiae or C. albicans at concentrations much lower than the lowest growth inhibitory concentration, these fungi were spotted onto agar plates containing rich medium (YPD) and a gradient of the antifungal fluconazole. The plates were then incubated for two days at optimum growth temperatures and washed with water. […]

`OC(Cn1cncn1)(Cn1cncn1)c1ccc(F)cc1F` [fluconazole] was tested, and the “inhibition of agar invasion relative to growth inhibition” value (S. cerevisiae) was “inhibition of agar invasion at significantly lower concentrations of fluconazole than those necessary to inhibit growth” and the “inhibition of agar invasion relative to growth inhibition” value (C. albicans) was “inhibition of agar invasion at significantly lower concentrations of fluconazole than those necessary to inhibit growth”.
